Laboratory results published in patent US9618513B2, “Compositions and methods for detecting and treating colorectal cancer” (The Regents of the University of Michigan, priority 2014, dated 2017).

Assays:
DLD-1 colon cancer cells = test: Colon cancer sphere assay, DLD-1 cells; assay type: cell-based, human
Text: (§1) (A), IL-22 is expressed in colon cancer tissues. IL-22 mRNA was detected by real-time PCR in colon cancer tissues and peripheral blood. *P<0.05 compared to blood, 20 colon cancer patients. (B-D), Endogenous IL-22 promotes colon carcinogenesis. Single cells (10^7) isolated from colon cancer tissue were mixed with anti-IL-22 antibody or control mAb, and then subcutaneously injected to NSG mice. Tumor growth (B), incidence (C), and animal survival (D) are shown. (P<0.05 for all, n=5 per group). (E-G) Recombinant IL-22 promotes colon carcinogenesis. DLD-1 colon cancer cells (10^5) were pre-incubated with IL-22 (20 ng/ml) for 1 hour, and then subcutaneously injected to NSG mice. Tumor growth (E), incidence (F), and animal survival (G) are shown. (P<0.05 for all, n=5 per group). (H, I) IL-22 enhances colon cancer sphere formation. DLD-1 colon cancer cells were pre-incubated for 24 hours with IL-22. […] ALDH activity was determined by FACS based on aldefluor fluorescence. […] Results are expressed as fold changes of ALDH expression. […] The mRNA of stem cell core gene was detected by real-time PCR (K) and proteins were detected by western blotting (L, M). […]
(A) IL-22 induces H3K79me2 in colon cancer cells. […] Total histone modifications were analyzed by western blot. […] Sphere numbers were recorded. […] DOT1L complex gene expression was quantified by real-time PCR. […] Sphere numbers were recorded. […]

[1] = system: NANOG, SOX2, POU5F1 (OCT3/4); test: Stem cell core gene expression (real-time PCR, western blotting); assay type: cell-based, human; details: DLD-1, IL-22 20 ng/ml
Text: as §1, with “mice.” for “mice. Tumor growth (E), incidence (F), and animal survival (G) are shown. (P<0.05 for all, n=5 per group). (H, I) IL-22 enhances colon cancer sphere formation. DLD-1 colon cancer cells were pre-incubated for 24 hours with IL-22.”
(A, B) IL-22 is expressed by immune cells in colon cancer tissues. Different cell populations were sorted from colon cancer tissues and IL-22 expression was measured by real time PCR. […] IL-22 was detected via ELISA. […] IL-22 was detected with ELISA (D) or intracellular staining (E). […] IL-22 mRNA was detected by real time PCR (F) and protein by ELISA (G). […] IL-22 expression was quantified with real-time PCR in the migrated and non-migrated cells. […]

Row | Molecule | sphere formation induced by IL-22 (DLD-1 colon cancer cells; DLD-1 cells, in the presence of IL-22, inhibitor 10 uM) | tumor sphere formation (DLD-1 colon cancer cells; DLD-1 pre-incubated 24 hours with IL-22, 2,000 cells) | mRNA levels of stem cell core genes NANOG, SOX2, POU5F1 (OCT3/4) ([1]; real-time PCR) | protein levels of stem cell core genes NANOG, SOX2, POU5F1 (OCT3/4) ([1]; western blotting)
1 | CC(C)N(CCCNC(=O)Nc1ccc(C(C)(C)C)cc1)C[C@H]1O[C@@H](n2ccc3c(N)ncnc32)[C@H](O)[C@@H]1O [EPZ004777] | suppressed |  |  | 
2 | IL-22: recombinant IL-22 (R&D systems), cytokine interleukin-22 |  | promoted tumor sphere formation in a dose dependent manner | enhanced | enhanced
